The assay has as its system MMP13 expression in SW1353 chondrosarcoma cell line. The assay can be described thus: MMP13 assay: IL-1/OSM-driven MMP13 expression in SW1353 cells (MMP13 ELISA). The format is cell-based. The note with it: Homo sapiens, IL-1β and OSM, 48 hr. As to the method:
The protocol of the MMP13 ELISA is described in section 4.1, then testing of compounds on release of IL-1/OSM-driven MMP13 expression in SW1353 chondrosarcoma cell line is described in section 4.2.
A 384 well format ELISA for measurement of MMP13 was developed. Various primary antibodies were tested, as well as various ELISA protocols. The following protocol is developed and validated to measure MMP13 levels in supernatant of cell cultures in 384 well plates.
Black maxisorb 384 well plates (Nunc 460518) are coated with 35 μl of a buffered solution containing 1.5 μg/mL anti-MMP13 antibody MAB511 (R&D systems). The antibody is diluted in carbonate-bicarbonate coating buffer (1.59 g Na2CO3 (Sigma S-7795) and 2.93 g NaHCO3 (Sigma S-5761) in 1 L MilliQ water, adjusted to pH 9.6). After overnight incubation at 4° C., wells are washed twice with 100 μL PBST (80 g NaCl, 2 g KCl (Sigma), 11.5 g Na2HPO4.7H2O and 2 g KH2PO4 in 10 L milliQ water; pH 7.4+0.05% Tween-20 (Sigma)) and blocked with 100 μL/well blocking buffer (5% non fat dry milk in PBS). After overnight incubation at 4° C., wells are washed twice with 100 μL PBST. The PBST is removed and 35 μL of sample is transferred to the ELISA plates. After 4 hr incubation at RT, plates are washed twice with PBST and incubated for 1 hr at 37° C. with 35 μL/well 1.5 mM APMA solution (a 10 mM APMA stock solution is prepared one day before (35.18 mg APMA (Sigma A-9563) in 10 mL 0.1M NaOH (Merck 1.06469.1000) and stored at 4° C. Before use, the 10 mM APMA stock solution is diluted to 1.5 mM in 1×APMA buffer (10× APMA buffer: 500 mM Tris (Roche 708976), 50 mM CaCl2 (Sigma C-5080), […] ZnCl2 (Sigma Z-0173), 1.5 M NaCl (Calbiochem 567441), 0.5% Brij35 (Sigma 430 AG-6) and adjust to pH 7.0). After activation of MMP13 by APMA, plates are washed again two times with 100 μL PBST/well and 35 μL of substrate solution is added to each well. Substrate solution is prepared as follows: OmniMMP Fluorescent substrate (Biomol P-126) stock solution (2 mM in DMSO, stored at −20° C.) is diluted in 1× OmniMMP buffer (10× OmniMMP buffer: 500 mM Hepes (Sigma H4034), 100 mM CaCl2 (Sigma C5080), 0.5% Brij35 (Sigma 430 AG-6; adjusted to pH 7.0) to a final concentration of 0.01 mM. After an overnight incubation at 37° C., the active MMP13 in the sample has cleaved the substrate and released fluorescence. Readout is performed on the EnVision (Perkin Elmer) using 320 nm excitation/405 nm emission filters.
Human chondrosarcoma cell line SW1353 was acquired from ATCC and grown in DMEM supplemented with 10% heat-inactivated FBS and 1× penicillin/streptomycin (Invitrogen) in a humidified 5% CO2 incubator at 37° C. Aliquots of the cells were frozen and cryopreserved in liquid nitrogen. Starting from a cryopreserved aliquot, cells are further grown by sub-culturing at a 1/5-1/8 ratio twice a week by trypsinisation.
Starting from the compound master stocks (all at 10 mM concentration in 100% DMSO) a 3-fold serial dilution is made in 96-well plates in 100% DMSO. Then, plates are futher diluted 50-fold in M199 medium supplemented with 1% heat-inactivated FBS to obtain an intermediate work stock.
At day 1, SW1353 cells are seeded in 96-well plates (flat bottom, tissue culture treated, Greiner) at a density of 15000 cells/well in 120 μL growth medium. The next day, 15 μL compound out of the intermediate work stock is added. After an incubation period of 60 minutes, which allows the compounds to equilibrate and enter the cells, cells are stimulated with a mixture of IL-1β and OSM, added in a volume of 15 μL to obtain final concentrations of 1 ng/ml IL-1β and 25 ng/ml OSM. For that, stocks of IL-1 (10 μg/ml) and OSM (25 μg/ml) (both PeproTech) were diluted to 10 ng/ml and 250 ng/ml respectively, in M199 medium supplemented with 1% FBS. After incubation for 48 hr, the cell supernatant was harvested and an appropriate dilution was processed in the MMP13 ELISA as described above, delivering raw data (RFU: relative fluorescence units). […]
(In general: An ELISA detects its analyte on a solid surface through an enzyme-linked reagent.)
Take `CC(C)N1C[C@@H]2C[C@H]1CN2c1ccc(Nc2ncc(-c3ccc4c(c3)CNC4=O)n3ncnc23)cc1` [Compound 1, 5-{8-[4-((1S,4S)-5-Isopropyl-2,5-diaza-bicyclo[2.2.1]hept-2-yl)-phenylamino]-[1,2,4]triazolo[1,5-a]pyrazin-5-yl}-2,3-dihydro-isoindol-1-one]: the concentration for half-maximal inhibition (IC50) (commonly the concentration that gives 50% inhibition) was greater than 1000 nM. The same measure for `CC(C)N1C[C@@H]2C[C@H]1CN2c1ccc(Nc2ncc(-c3coc(C(N)=O)c3)n3ncnc23)cc1` [Compound 2, 4-{8-[4-((1S,4S)-5-Isopropyl-2,5-diaza-bicyclo[2.2.1]hept-2-yl)-phenylamino]-[1,2,4]triazolo[1,5-a]pyrazin-5-yl}-furan-2-carboxamide]: 1 to 500 nM; for `CC(C)(C)N1C[C@@H]2C[C@H]1CN2c1ccc(Nc2ncc(-c3coc(C(N)=O)c3)n3ncnc23)cc1` [Compound 3, 4-{8-[4-((1S,4S)-5-tert-Butyl-2,5-diaza-bicyclo[2.2.1]hept-2-yl)-phenylamino]-[1,2,4]triazolo[1,5-a]pyrazin-5-yl}-furan-2-carboxamide]: 1 to 500 nM; for `CC(C)N1C[C@@H]2C[C@H]1CN2c1ccc(Nc2ncc(-c3coc(C(N)=O)c3)n3ccnc23)cc1` [Compound 4, 4-{8-[4-((1S,4S)-5-Isopropyl-2,5-diaza-bicyclo[2.2.1]hept-2-yl)-phenylamino]-imidazo[1,2-a]pyrazin-5-yl}-furan-2-carboxamide]: greater than 1000 nM. The figure for `CC(C)N1C[C@@H]2C[C@H]1CN2c1ccc(Nc2ncc(-c3cc(C(N)=O)n[nH]3)n3ncnc23)cc1` [Compound 5, 5-{8-(4-((1S,4S)-5-isopropyl-2,5-diazabicyclo[2.2.1]heptan-2-yl)phenyl-amino)-[1,2,4]triazolo[1,5-a]pyrazin-5-yl}-1H-pyrazole-3-carboxamide] is greater than 1000 nM; for `CC(C)(C)N1C[C@@H]2C[C@H]1CN2c1ccc(Nc2ncc(-c3coc(C(N)=O)c3)n3ccnc23)cc1` [Compound 6] it is greater than 1000 nM.

Molecule `CC(C)N1C[C@@H]2C[C@H]1CN2c1ccc(Nc2ncc(-c3cc[nH]c(=O)c3)n3ccnc23)cc1` [Compound 8, 4-{8-(4-((1S,4S)-5-isopropyl-2,5-diazabicyclo[2.2.1]heptan-2-yl)phenyl-amino)imidazo[1,2-a]pyrazin-5-yl}-1H-pyridin-2-one] came in with a concentration for half-maximal inhibition (IC50) of 1 to 500 nM.

The molecule `CC(C)N1CC2CCC1CN2c1ccc(Nc2ncc(-c3coc(C(N)=O)c3)n3ncnc23)cc1` (centres unmarked) [Compound 9, 4-{8-(4-(5-isopropyl-2,5-diazabicyclo[2.2.2]octan-2-yl)phenylamino)[1,2,4]-triazolo[1,5-a]pyrazin-5-yl}-furan-2-carboxamide] had a concentration for half-maximal inhibition (IC50) greater than 1000 nM. The same measure for `CC(C)N1CC2CCC(C1)N2c1ccc(Nc2ncc(-c3coc(C(N)=O)c3)n3ccnc23)cc1` [Compound 11, 4-{8-(4-(3-isopropyl-3,8-diazabicyclo[3.2.1]octan-8-yl)phenylamino)-imidazo[1,2-a]pyrazin-5-yl}-furan-2-carboxamide]: greater than 1000 nM.

Turning to `CC(C)N1C2CCC1CN(c1ccc(Nc3ncc(-c4coc(C(N)=O)c4)n4ncnc34)cc1)C2` [Compound 12, 4-{8-(4-(8-isopropyl-3,8-diazabicyclo[3.2.1]octan-3-yl)phenylamino)[1,2,4]-triazolo[1,5-a]pyrazin-5-yl}-furan-2-carboxamide], the concentration for half-maximal inhibition (IC50) was greater than 1000 nM.

For the molecule `CC(C)N1C[C@@H]2C[C@H]1CN2c1ccc(Nc2ncc(-c3cc(C(N)=O)n[nH]3)n3ncnc23)cn1` [Compound 15, 5-{8-(6-((1S,4S)-5-isopropyl-2,5-diazabicyclo[2.2.1]heptan-2-yl)pyridin-3-ylamino)-[1,2,4]triazolo[1,5-a]pyrazin-5-yl}-1H-pyrazole-3-carboxylic acid amide], the IC50 is greater than 1000 nM. The figure for `CC(C)(C)N1C[C@@H]2C[C@H]1CN2c1ccc(Nc2ncc(-c3ccc4c(c3)CNC4=O)n3ncnc23)cc1` [Compound 16, 5-{8-(4-((1S,4S)-5-tert-butyl-2,5-diazabicyclo[2.2.1]heptan-2-yl)phenylamino)-[1,2,4]triazolo-[1,5-a]pyrazin-5-yl}-2,3-dihydro-isoindol-1-one] is greater than 1000 nM. The figure for `CC(C)(C)N1C[C@@H]2C[C@H]1CN2c1ccc(Nc2ncc(-c3cc(C(N)=O)n[nH]3)n3ncnc23)cc1` [Compound 17, 5-{8-(4-((1S,4S)-5-tert-butyl-2,5-diazabicyclo[2.2.1]heptan-2-yl)phenyl-amino)-[1,2,4]triazolo[1,5-a]pyrazin-5-yl}-1H-pyrazole-3-carboxylic acid amide] is 501 to 1000 nM.

The molecule `CC(C)N1C[C@@H]2C[C@H]1CN2c1ccc(Nc2ncc(-c3ccc4c(c3)CNC4=O)n3ncnc23)cn1` [Compound 18, 5-{8-(6-((1S,4S)-5-isopropyl-2,5-diazabicyclo[2.2.1]heptan-2-yl)pyridin-3-ylamino)-[1,2,4]triazolo[1,5-a]pyrazin-5-yl}-2,3-dihydro-isoindol-1-one] came in with an IC50 greater than 1000 nM.

The molecule `CCOc1cc(-c2cnc(Nc3ccc(N4C[C@@H]5C[C@H]4CN5C(C)C)cc3)c3ncnn23)ccn1` [Compound 19, 5-(2-ethoxypyridin-4-yl)-N-(4-((1S,4S)-5-isopropyl-2,5-diazabicyclo[2.2.1]heptan-2-yl)phenyl)-[1,2,4]triazolo[1,5-a]pyrazin-8-amine] gave an IC50 greater than 1000 nM.

`CC(C)N1C[C@@H]2C[C@H]1CN2c1ccc(Nc2ncc(-c3cc[nH]c(=O)c3)n3ncnc23)cc1` [Compound 20, 4-(8-(4-((1S,4S)-5-isopropyl-2,5-diazabicyclo[2.2.1]heptan-2-yl)phenylamino)-[1,2,4]triazolo[1,5-a]pyrazin-5-yl)pyridin-2(1H)-one] yielded an IC50 greater than 1000 nM. The figure for `CCOC(=O)c1cc(-c2cnc(Nc3ccc(N4C[C@@H]5C[C@H]4CN5C(C)C)cc3)c3ncnn23)[nH]n1` [Compound 21, Ethyl 5-(8-(4-((1S,4S)-5-isopropyl-2,5-diazabicyclo[2.2.1]heptan-2-yl)phenylamino)-[1,2,4]triazolo[1,5-a]pyrazin-5-yl)-1H-pyrazole-3-carboxylate] is greater than 1000 nM.

The molecule `CCOc1cc(-c2cnc(Nc3ccc(N4C[C@@H]5C[C@H]4CN5C(C)C)cc3)c3nccn23)ccn1` [Compound 22, 5-(2-ethoxypyridin-4-yl)-N-(4-((1S,4S)-5-isopropyl-2,5-diazabicyclo[2.2.1]heptan-2-yl)phenyl)imidazo[1,2-a]pyrazin-8-amine] had an IC50 greater than 1000 nM. Regarding `CC(C)N1C[C@@H]2C[C@H]1CN2c1ccc(Nc2ncc(-c3noc(C(N)=O)n3)n3ncnc23)cc1` [Compound 23, 3-(8-(4-((1S,4S)-5-isopropyl-2,5-diazabicyclo[2.2.1]heptan-2-yl)phenylamino)-[1,2,4]triazolo[1,5-a]pyrazin-5-yl)-1,2,4-oxadiazole-5-carboxamide], the IC50 is greater than 1000 nM. In turn, `CC(C)N1C[C@@H]2C[C@H]1CN2c1cccc(Nc2ncc(-c3coc(C(N)=O)c3)n3ncnc23)c1` [Compound 24, 4-(8-(3-((1S,4S)-5-isopropyl-2,5-diazabicyclo[2.2.1]heptan-2-yl)phenylamino)-[1,2,4]triazolo[1,5-a]pyrazin-5-yl)furan-2-carboxamide] had a half-inhibitory concentration (IC50) greater than 1000 nM.

Values taken from patent US8012983B2, “Substituted triazolopyrazines useful for the treatment of degenerative and inflammatory diseases” (Galapagos NV, priority 2008, dated 2011).
